Experimental data: US7671085B2, “Non-steroidal farnesoid X receptor modulators and methods for the use thereof” (The Salk Institute for Biological Studies, priority 2002, dated 2010)

How the values were obtained:
[1] = tested on: IBABP mRNA in HT29-FXRFL cells; test: Northern blot of IBABP mRNA in HT29 stable cell lines; type: cell-based, Human; settings: for concentration for maximal induction of IBABP mRNA: overnight treatment
Experimental: (§1) HepG2 or HT29-derived cell lines were typically cultured in medium containing superstripped FBS for 24 hr before the addition of a ligand or DMSO (vehicle) for an additional 24-48 hr. Total RNA was isolated using TRIzol reagent and was resolved (10 μg/lane) on a 1% agarose, 2.2 M formaldehyde gel, transferred to a nylon membrane (Hybond N^+; Amersham Biosciences, Inc.), and cross-linked to the membrane with UV light.
(§2) cDNA probes were radiolabeled with [α-^32P]dCTP using the highprime labeling kit (Amersham Biosciences, Inc.). Membranes were hybridized using the QuikHyb hybridization solution (Stratagene, La Jolla, Calif.) according to the manufacturer's protocol. Blots were normalized for variations of RNA loading by hybridization to a control probe, either, 18 S ribosomal cDNA, or the ribosomal protein 36B4. The RNA levels were quantitated using a PhosphorImager (ImageQuant software; Molecular Dynamics, Inc., Sunnyvale, Calif.) in addition to being exposed to X-ray film.
Human colon cells HT29 (FXR null until differentiated) were infected with retroviral vectors that expressed either FXR constructs and the puromycin-resistant gene or the puromycin-resistant gene alone. Puromycin resistant cells were isolated and pooled cell populations were propagated that harbored either the vector alone (HT29-BABE), overexpressed FXR full length (HT29-FXRFL), a non-functional FXR truncated at the AF2 region (HT29-FXR-AF2), or a constitutively active FXR that has the VP16 activation domain fused N-terminal of the protein (HT29-VP16-FXR). Confirmation of the successful establishment of the different stable cell lines was established via northern blot analysis of FXR message levels in the cells.
These observations verify the usefulness of this colon cell model system for studying the induction of FXR target genes.
The ability of the novel compounds identified herein to induce IBABP gene expression in this cell system was also examined. Total RNA from HT29 stable cells treated overnight with fexaramine, fexarine and fexarene was probed for IBABP gene expression.

FXR = biological target: T1, FXR (Homo sapiens, UniProt Q96RI1); test: cell-based FXR transcription assay, FXR responsive promoter linked to luciferase reporter; settings: cell-based FXR reporter assay; footnote a not given
T1 construct: using a full length FXR on a natural response element; expressed in transfected cells
T1 sequence (Q96RI1 1-486): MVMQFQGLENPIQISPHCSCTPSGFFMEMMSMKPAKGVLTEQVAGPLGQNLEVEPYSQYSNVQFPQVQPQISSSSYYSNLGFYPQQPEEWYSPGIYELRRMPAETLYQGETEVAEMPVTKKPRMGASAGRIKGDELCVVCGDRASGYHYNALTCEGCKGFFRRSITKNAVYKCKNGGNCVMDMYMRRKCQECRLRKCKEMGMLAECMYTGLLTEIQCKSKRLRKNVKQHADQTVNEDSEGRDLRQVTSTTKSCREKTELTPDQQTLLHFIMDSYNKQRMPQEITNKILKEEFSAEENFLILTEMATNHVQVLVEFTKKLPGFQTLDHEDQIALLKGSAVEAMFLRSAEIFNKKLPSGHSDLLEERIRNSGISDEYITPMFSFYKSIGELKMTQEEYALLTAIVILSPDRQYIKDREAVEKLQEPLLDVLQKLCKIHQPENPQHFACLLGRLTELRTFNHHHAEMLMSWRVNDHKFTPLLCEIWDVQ
In short: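 Cells co-transfected with full-length FXR and a luciferase reporter driven by a natural response element on a minimal promoter. Compound exposure ≈10 μM for 18 h before washing and luciferase read-out, in 384-well format, with CDCA as reference activator. EC50 derived from transcriptional activity.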

SXR = biological target: T2, SXR (Homo sapiens, UniProt O75469); test: nuclear receptor panel: SXR activation; type: cell-based
T2 sequence (O75469 1-434): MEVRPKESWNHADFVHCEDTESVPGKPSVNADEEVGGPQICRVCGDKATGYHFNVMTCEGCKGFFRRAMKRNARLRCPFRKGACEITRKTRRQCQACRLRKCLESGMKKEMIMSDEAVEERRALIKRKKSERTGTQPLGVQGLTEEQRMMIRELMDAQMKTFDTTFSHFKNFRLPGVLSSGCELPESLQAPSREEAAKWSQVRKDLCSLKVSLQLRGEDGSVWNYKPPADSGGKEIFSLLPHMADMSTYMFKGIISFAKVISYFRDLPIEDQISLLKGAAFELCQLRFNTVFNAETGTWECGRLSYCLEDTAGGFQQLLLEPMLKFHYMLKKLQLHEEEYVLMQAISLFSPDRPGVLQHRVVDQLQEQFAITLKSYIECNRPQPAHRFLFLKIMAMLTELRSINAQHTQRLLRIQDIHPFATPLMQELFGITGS

mouse FXR and human RXR = biological target: T3, mouse FXR and human RXR (Mus musculus, UniProt Q60641); test: CV-1 transient transfection reporter gene assay, TK minimal promoter with ECRE or ER-8 FXRE; type: cell-based; settings: CV-1 cells
T3 construct: expressed in transfected cells; host or cells: CV-1 cells
T3 sequence (Q60641 1-488): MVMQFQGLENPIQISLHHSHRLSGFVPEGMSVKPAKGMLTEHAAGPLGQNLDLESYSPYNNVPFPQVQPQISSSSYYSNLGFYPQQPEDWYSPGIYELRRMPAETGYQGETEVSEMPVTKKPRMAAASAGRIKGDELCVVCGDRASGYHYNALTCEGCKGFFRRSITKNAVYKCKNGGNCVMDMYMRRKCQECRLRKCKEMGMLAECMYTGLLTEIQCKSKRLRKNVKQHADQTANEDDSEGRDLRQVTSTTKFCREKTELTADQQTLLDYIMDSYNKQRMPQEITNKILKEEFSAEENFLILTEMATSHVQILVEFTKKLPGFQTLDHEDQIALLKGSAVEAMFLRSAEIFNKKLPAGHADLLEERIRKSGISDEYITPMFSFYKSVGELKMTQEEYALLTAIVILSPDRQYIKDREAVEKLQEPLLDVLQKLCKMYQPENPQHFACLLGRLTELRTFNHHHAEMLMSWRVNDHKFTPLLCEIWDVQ
T3 sequence (P19793 1-462 partner): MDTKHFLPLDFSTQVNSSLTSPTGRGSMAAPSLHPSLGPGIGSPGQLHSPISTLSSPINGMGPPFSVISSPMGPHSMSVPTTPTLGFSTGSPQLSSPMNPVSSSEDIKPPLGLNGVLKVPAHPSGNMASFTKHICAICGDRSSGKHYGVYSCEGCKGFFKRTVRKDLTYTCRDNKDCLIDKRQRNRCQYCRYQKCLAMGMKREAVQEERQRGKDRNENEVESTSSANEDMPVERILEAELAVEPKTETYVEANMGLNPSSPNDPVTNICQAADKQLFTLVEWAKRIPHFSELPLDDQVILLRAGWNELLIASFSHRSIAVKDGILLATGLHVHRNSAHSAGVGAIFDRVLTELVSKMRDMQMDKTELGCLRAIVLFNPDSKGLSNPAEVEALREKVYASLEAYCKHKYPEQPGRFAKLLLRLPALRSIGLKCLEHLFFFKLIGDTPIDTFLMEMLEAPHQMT
Experimental: The ability of these compounds to activate the receptor in a number of different cell-based reporter gene assays was then determined. […] CV-1 cells were transiently transfected with an expression plasmid for mouse FXR and human RXR with a thymidine kinase (TK) minimal promoter reporter vector containing either no copies or six copies of the ecdysone response element (ECRE), a well-characterized FXR response element (FXRE). In addition, two copies of the recently identified FXRE everted repeat separated by 8 nucleotides (ER-8) was also studied (see, for example, Laffitte et al. (2000). Identification of the DNA binding specificity and potential target genes for the farnesoid X-activated receptor. J Biol Chem. 275(14), 10638-47; Kast et al. (2002). Regulation of multidrug resistance-associated protein 2 (ABCC2) by the nuclear receptors pregnane X receptor, farnesoid X-activated receptor, and constitutive androstane receptor. J Biol Chem. 277(4), 2908-15).

[2] = tested on: FXR (IBABP, PLTP and MRP-2 promoters); test: transient transfection cell-based assay with natural promoters of FXR targets (IBABP, PLTP, MRP-2)
Text: For this study, the following gene promoters were used: intestinal bile acid binding protein (IBABP; see, for example, Grober et al. (1999). Identification of a bile acid-responsive element in the human ileal bile acid-binding protein gene. Involvement of the farnesoid X receptor/9-cis-retinoic acid receptor heterodimer. J Biol Chem. 274(42), 29749-54), phospholipid transfer protein (PLTP) (Urizar et al (2000). The farnesoid X-activated receptor mediates bile acid activation of phospholipid transfer protein gene expression. J Biol Chem. 275(50), 39313-7) and multidrug resistance related protein 2 (MRP-2) (Kast et al. (2002), supra), which are all well characterized targets of FXR. The natural promoters of both the IBABP and PLTP genes contain one copy of an inverted repeat with a one base spacing (IR-1) while MRP-2 contains an ER-8 element. […] The most robust activation (28-fold) was seen on the IBABP promoter. Less robust (2-3 fold) but specific activation was observed on the PLTP and MRP-2 promoters.

[3] = tested on: FXR target genes SHP, MRP-2, BSEP and PLTP; test: Northern blot of FXR target genes in HEPG2-FXR cells; type: cell-based; settings: SHP, MRP-2, BSEP, PLTP
Experimental: as §1, §2
Total RNA was isolated and the expression of the FXR target genes SHP, MRP-2, BSEP and PLTP was measured by Northern blot analysis. […]

[4] = HT29-BABE or HT29-FXR-AF2 cell lines
[5] = HT29-VP16-FXR cells (constitutive expression)

C[C@H](CCC(=O)O)[C@H]1CC[C@H]2[C@@H]3[C@H](O)C[C@@H]4C[C@H](O)CC[C@]4(C)[C@H]3CC[C@]12C [CDCA, chenodeoxycholic acid, reference compound]
induction of IBABP mRNA, in words [1, 4]: No induction of IBABP mRNA levels | induction of IBABP mRNA, in words ([1]; HT29-FXRFL cells): robust concentration dependent induction of IBABP mRNA | concentration for maximal induction of IBABP mRNA ([1]; HT29-FXRFL cells): 100 µM | induction of IBABP mRNA, in words [1, 5]: super-induced

COC(=O)/C=C/c1cccc(N(Cc2ccc3c(c2OC)OC(C)(C)C2C3C2(Cl)Cl)C(=O)C2CCCCC2)c1 (centres unmarked) [Compound 149]
RE^a (FXR): 0.50 | SXR activation, in words (SXR): potently activated SXR

COC(=O)/C=C/c1cccc(N(Cc2ccc(-c3ccc(N(C)C)cc3)cc2)C(=O)NC(C)C)c1 [Compound 261]
RE^a (FXR): 1.01

COC(=O)/C=C/c1cccc(N(Cc2ccc(-c3ccc(C(C)(C)C)cc3)cc2)C(=O)C2CCCCC2)c1 [Compound 262]
RE^a (FXR): 1.38

COC(=O)/C=C/c1cccc(N(Cc2ccc(-c3ccc(C(C)(C)C)cc3)cc2)C(=O)C(C)C)c1 [Compound 263]
RE^a (FXR): 0.59

COC(=O)/C=C/c1cccc(N(Cc2ccc(-c3ccc(C(C)(C)C)cc3)cc2)C(=O)NC(C)C)c1 [Compound 264]
RE^a (FXR): 1.02

CC(C)c1onc(-c2c(Cl)cccc2Cl)c1COc1ccc(/C=C/c2cccc(C(=O)O)c2)c(Cl)c1 [GW4064, reference compound]
concentration at which maximal activity is achieved (mouse FXR and human RXR; ECRE and ER-8 reporters): 1 µM | activity on the minimal TK promoter (mouse FXR and human RXR; no FXRE copies): less than 2 fold | activation of ECRE FXRE reporter (mouse FXR and human RXR; six copies of ECRE, TK minimal promoter): 100 fold | activation of ER-8 FXRE reporter (mouse FXR and human RXR; two copies of ER-8, TK minimal promoter): 4 fold | induction of IBABP mRNA, in words [1, 4]: No induction of IBABP mRNA levels | induction of IBABP mRNA, in words ([1]; HT29-FXRFL cells): robust concentration dependent induction of IBABP mRNA | concentration for maximal induction of IBABP mRNA ([1]; HT29-FXRFL cells): 1 µM | induction of IBABP mRNA, in words [1, 5]: super-induced | concentration of maximum efficacy [2]: 1 µM | induction of FXR target genes, in words [3]: slightly better induction of the FXR target genes PLTP and SHP
